Assay results as given in PMC11274128, “Modification and Synergistic Studies of a Novel Frog Antimicrobial Peptide against Pseudomonas aeruginosa Biofilms” (Antibiotics, 2024).
≈ marks a conversion by molar mass, not a printed value. Where two headings read alike, the source gives them in different places. Bridge positions count the residues as written; N and C are the ends. Peptide text beside a SMILES is read from it.

Tests used:
A. baumannii (BAA 747) = test: microbe, parasite or virus in culture; assay type: cell-based, Acinetobacter baumannii; conditions: planktonic A. baumannii BAA 747; for MIC: 37 °C, nine repeats of three independent experiments; for MBC: lowest concentration killing 99.9% of inoculum
Excerpt: (§1) The minimum inhibitory concentration (MIC) is the minimum concentration of an antimicrobial agent that prevents the visible growth of a bacterium or bacteria. The MIC is an important piece of data for research on new antimicrobial agents and helps in the effective selection of antibiotics to improve the success of treatment. The minimum bactericidal concentration (MBC) is defined as the lowest antibiotic concentration that kills 99.9% of the inoculum. This study mainly contained eight different microorganisms, which were Staphylococcus aureus (ATCC 6538), methicillin-resistant Staphylococcus aureus (NCTC 12493), Enterococcus faecalis (NCTC 12697), Escherichia coli (ATCC 8739), Klebsiella pneumoniae (ATCC 43816), Pseudomonas aeruginosa (ATCC CRM 9027), Acinetobacter baumannii (BAA 747), and Candida albicans (ATCC 10231). The bacteria were incubated in the compatible medium at 37 °C overnight.

G− Bacteria = test: Geometric mean of MICs and TI value; assay type: cell-based; conditions: geometric mean of MICs against tested Gram-negative bacteria
Procedure: The therapeutic potential of antimicrobial agents was valued based on their selectivity toward bacteria in reference to erythrocytes. The TI value was calculated from the results of antibacterial and haemolysis experiments of peptides using the following formula:TI value = HC10 / GMMICs.
GM was the geometric mean of MICs against all tested bacteria.

E. faecalis (NCTC 12697) = test: microbe, parasite or virus in culture; assay type: cell-based, Enterococcus faecalis; conditions: planktonic E. faecalis NCTC 12697; for MIC: 37 °C, nine repeats of three independent experiments; for MBC: lowest concentration killing 99.9% of inoculum
Excerpt: as §1

[1] = test system: E. faecalis NCTC 12697 biofilm; test: Peptide and antibiotic co-administration MBIC checkerboard assay; assay type: cell-based, Enterococcus faecalis; conditions: 24 h, crystal violet, 595 nm
Excerpt: The plate was then carefully cleaned under running water.

[2] = test system: P. aeruginosa (ATCC CRM 9027); test: microbe, parasite or virus in culture; assay type: cell-based, Pseudomonas aeruginosa; conditions: planktonic P. aeruginosa ATCC CRM 9027; for MIC: 37 °C, nine repeats of three independent experiments; for MBC: lowest concentration killing 99.9% of inoculum
Excerpt: as §1

[3] = test system: K. pneumoniae ATCC 43816 biofilm; assay type: cell-based, Klebsiella pneumoniae; conditions: for MBIC: lowest concentration inhibiting at least 90% of biofilm formation; for MBEC: minimum concentration eradicating at least 99% of the biofilm
Excerpt: (§2) The minimum bactericidal concentration (MBC) is defined as the lowest antibiotic concentration that kills 99.9% of the inoculum. The minimum biofilm inhibitory concentration (MBIC) is the lowest concentration that inhibits at least 90% of the formation of biofilm. The minimum biofilm eradication concentration (MBEC) is the minimum concentration that can eradicate at least 99% of the biofilm. In addition to the eight microorganisms described previously, this experiment was also applied to P. aeruginosa (ATCC 27853, ATCC BAA-2108, P. aeruginosa 01, P. aeruginosa 14).

MRSA NCTC 12493 biofilm = assay type: cell-based, methicillin-resistant Staphylococcus aureus; conditions: for MBIC: lowest concentration inhibiting at least 90% of biofilm formation; for MBEC: minimum concentration eradicating at least 99% of the biofilm
Excerpt: as §2

[4] = test system: P. aeruginosa ATCC CRM 9027 biofilm; assay type: cell-based, Pseudomonas aeruginosa; conditions: for MBIC: lowest concentration inhibiting at least 90% of biofilm formation; for MBEC: minimum concentration eradicating at least 99% of the biofilm
Excerpt: as §2

[5] = test system: P. aeruginosa ATCC BAA-2108 biofilm; assay type: cell-based, Pseudomonas aeruginosa; conditions: for MBIC: lowest concentration inhibiting at least 90% of biofilm formation; for MBEC: minimum concentration eradicating at least 99% of the biofilm
Excerpt: as §2

P. aeruginosa 14 biofilm = assay type: cell-based, Pseudomonas aeruginosa; conditions: for MBIC: lowest concentration inhibiting at least 90% of biofilm formation; for MBEC: minimum concentration eradicating at least 99% of the biofilm
Excerpt: as §2

P. aeruginosa 01 biofilm = assay type: cell-based, Pseudomonas aeruginosa; conditions: for MBIC: lowest concentration inhibiting at least 90% of biofilm formation; for MBEC: minimum concentration eradicating at least 99% of the biofilm
Excerpt: as §2

[6] = test system: P. aeruginosa ATCC 27853 biofilm; assay type: cell-based, Pseudomonas aeruginosa; conditions: for MBIC: lowest concentration inhibiting at least 90% of biofilm formation; for MBEC: minimum concentration eradicating at least 99% of the biofilm
Excerpt: as §2

[7] = test system: E. faecalis NCTC 12697 biofilm; assay type: cell-based, Enterococcus faecalis; conditions: for MBIC: lowest concentration inhibiting at least 90% of biofilm formation; for MBEC: minimum concentration eradicating at least 99% of the biofilm
Excerpt: as §2

E. faecalis NCTC 12697 = conditions: checkerboard MIC, planktonic E. faecalis NCTC 12697, 37 °C, 24 h, OD 550 nm
Procedure: (§3) The bacteria were cultured, subcultured, diluted, and incubated as the methods of the MIC assay. The pure peptides and antibiotics were weighed and, respectively, dissolved in DMSO and dd water to make the final concentration of 2× MIC. […] Different concentrations of peptide and antibiotic solutions were added to a 96-well plate in the form of a checkerboard grid. The blank control and growth control were still 100 µL medium and 100 µL bacterial culture. The plate was incubated at 37 °C for 24 h. After that, the plate reader was used to monitor the absorbance of each well at 550 nm (The Synergy TM HT, BioTek, Winooski, VT, USA).
(§4) Parameter fractional inhibitory concentration indices (FICIs) were used to evaluate the synergistic effect, and the value of that was calculated as follows:FICI = FICa + FICb FICa = MIC combination peptide/MIC single peptide FICb = MIC combination antibiotic/MIC single antibiotic
(§5) The FICI value was interpreted as “synergy” (FICI ≤ 0.5), “no interaction” (0.5 < FICI ≤ 4), or “antagonism” (FICI > 4).

E. coli ATCC 8739 = conditions: checkerboard MIC, planktonic E. coli ATCC 8739, 37 °C, 24 h, OD 550 nm
Procedure: as §3, §4, §5

A. baumannii BAA 747 = conditions: checkerboard MIC, planktonic A. baumannii BAA 747, 37 °C, 24 h, OD 550 nm
Procedure: as §3, §4, §5

C. albicans (ATCC 10231) = assay type: cell-based, Candida albicans; conditions: yeast C. albicans ATCC 10231; for MIC: 37 °C, nine repeats of three independent experiments; for MBC: lowest concentration killing 99.9% of inoculum
Excerpt: as §1

[8] = peptide combined with gentamicin
[9] = peptide combined with levofloxacin
[10] = peptide combined with vancomycin

| SMILES | GM (geometric mean of MICs), G− Bacteria (G− Bacteria) | MIC (E. faecalis (NCTC 12697)) | MBC (E. faecalis (NCTC 12697)) | Biofilm FICI ([1]; peptide combined with cefepime) | MBIC [3] | MBEC [3] | MBIC (MRSA NCTC 12493 biofilm) | MBEC (MRSA NCTC 12493 biofilm) | MBIC [4] | MBEC [4] | MBIC [5] | MBEC [5] | MBIC (P. aeruginosa 14 biofilm) | MBEC (P. aeruginosa 14 biofilm) | MBIC (P. aeruginosa 01 biofilm) | MBEC (P. aeruginosa 01 biofilm) | MBIC [6] | MBEC [6] | MBIC [7] | MBEC [7] | also measured |
| --- | --- | --- | --- | --- | --- | --- | --- | --- | --- | --- | --- | --- | --- | --- | --- | --- | --- | --- | --- | --- | --- |
| CC[C@H](C)[C@H](NC(=O)[C@H](CCCCN)NC(=O)[C@H](CCCCN)NC(=O)CNC(=O)[C@H](C)NC(=O)[C@H](CCCNC(=N)N)NC(=O)[C@H](CC(C)C)NC(=O)[C@@H](NC(=O)[C@H](C)NC(=O)[C@H](CCCNC(=N)N)NC(=O)[C@H](CC(C)C)NC(=O)[C@H](CC(C)C)NC(=O)CN)C(C)C)C(=O)N[C@H](C(=O)N[C@H]1CSSC[C@@H](C(=O)O)NC(=O)[C@H](CCCNC(=N)N)NC(=O)CNC(=O)[C@H](CO)NC(=O)[C@H](CC(C)C)NC(=O)CNC1=O)C(C)C [Peptide 2170-2R] (H-GLLRAVLRAGKKIVCGLSGRC-OH; disulfide 15-21) | 11.31 µM | 128 µM (≈ 278 µg/mL) | 128 µM (≈ 278 µg/mL) | 0.375 | 32 µM | > 128 µM | 4 µM | 16 µM | >128/>128 µM | >128/>128 µM | >128/>128 µM | >128/>128 µM | >128/>128 µM | >128/>128 µM | 32 µM | 64 µM | 8 µM | 16 µM | 32 µM | > 128 µM | MIC (A. baumannii (BAA 747); read-out: MIC): 4 µM (≈ 8.67 µg/mL); MBC (A. baumannii (BAA 747); read-out: MBC): 8 µM (≈ 17.3 µg/mL); MIC [2]: 32 µM (≈ 69.4 µg/mL); MBC [2]: 32 µM (≈ 69.4 µg/mL); FICI (E. faecalis NCTC 12697; peptide combined with cefepime): 0.1562; FICI (E. faecalis NCTC 12697; [8]): 0.625; FICI (E. faecalis NCTC 12697; [9]): 0.625; FICI (E. faecalis NCTC 12697; [10]): 0.625; FICI (E. coli ATCC 8739; peptide combined with cefepime): 0.5312; FICI (E. coli ATCC 8739; [8]): 0.125; FICI (E. coli ATCC 8739; [9]): 0.375; FICI (E. coli ATCC 8739; [10]): >4; FICI (A. baumannii BAA 747; peptide combined with cefepime): 1.5; FICI (A. baumannii BAA 747; [8]): 0.25; FICI (A. baumannii BAA 747; [9]): >4; FICI (A. baumannii BAA 747; [10]): 0.625; MIC (C. albicans (ATCC 10231)): 64 µM (≈ 139 µg/mL); MBC (C. albicans (ATCC 10231)): 128 µM (≈ 278 µg/mL) |
| CC[C@H](C)[C@H](NC(=O)[C@H](CCCCN)NC(=O)[C@H](CCCCN)NC(=O)CNC(=O)[C@H](C)NC(=O)CNC(=O)[C@H](CC(C)C)NC(=O)[C@@H](NC(=O)CNC(=O)[C@H](CO)NC(=O)[C@H](CC(C)C)NC(=O)[C@H](CC(C)C)NC(=O)CN)C(C)C)C(=O)N[C@H](C(=O)N[C@H]1CSSC[C@@H](C(=O)O)NC(=O)[C@H](CCCNC(=N)N)NC(=O)CNC(=O)[C@H](CO)NC(=O)[C@H](CC(C)C)NC(=O)CNC1=O)C(C)C [Nigrosin-6VL] (H-GLLSGVLGAGKKIVCGLSGRC-OH; disulfide 15-21) | 90.51 µM | > 128 µM | > 128 µM | 0.5 | >128/>128 µM | >128/>128 µM | >128/>128 µM | >128/>128 µM | >128/>128 µM | >128/>128 µM | >128/>128 µM | >128/>128 µM | >128/>128 µM | >128/>128 µM | >128/>128 µM | >128/>128 µM | >128/>128 µM | >128/>128 µM | >128/>128 µM | >128/>128 µM | MIC (A. baumannii (BAA 747)): > 128 µM; MBC (A. baumannii (BAA 747)): > 128 µM; Biofilm FICI [1, 8]: 0.5; MIC ([2]; read-out: MIC): 32 µM (≈ 63.6 µg/mL); MBC ([2]; read-out: MBC): 128 µM (≈ 254 µg/mL); FICI (E. faecalis NCTC 12697; peptide combined with cefepime): 0.125; FICI (E. faecalis NCTC 12697; [8]): 0.625; FICI (E. faecalis NCTC 12697; [9]): 0.625; FICI (E. faecalis NCTC 12697; [10]): 0.625; FICI (E. coli ATCC 8739; peptide combined with cefepime): 0.375; FICI (E. coli ATCC 8739; [8]): 0.125; FICI (E. coli ATCC 8739; [9]): 0.375; FICI (E. coli ATCC 8739; [10]): 1.125; FICI (A. baumannii BAA 747; peptide combined with cefepime): 1; FICI (A. baumannii BAA 747; [8]): 0.1875; FICI (A. baumannii BAA 747; [9]): >4; FICI (A. baumannii BAA 747; [10]): 1.25; MIC (C. albicans (ATCC 10231)): 128 µM (≈ 254 µg/mL); MBC (C. albicans (ATCC 10231)): > 128 µM |
